# Measured values as given in US12616681B2, “Compositions and methods for treating renal injury” (priority 2019, dated 2026).
# What was measured:
# [1] = system: PGE2 levels in kidney tissue; test: Renal PGE2 levels in normal mice 1 h after injection (Example 2); type: in vivo
# Description: Next, 20 mg kidney tissue was homogenized in […] cold PBS containing indomethacin (10 μg/mL) using a tissue homogenizer. The suspension was sonicated in an ice-water bath for 1 min using cycles of 10 s of sonication with 10 s of cooling, and then they were centrifuged for 10 min at 12,000 rpm. The supernatant was collected for PGE-2 assay. Protein concentrations were determined by bicinchoninic acid assay (Cat. #23225, Thermo Scientific). The PGE2 level in the supernatant was measured using a PGE2 enzyme-linked immunosorbent assay kit (R&D Systems, Minneapolis, MN, USA) in triplicate. PGE-2 levels were expressed as ng of PGE2/mg protein.
# [2] = system: mice with ischemic AKI (bilateral renal IRI); test: Renal IRI model: proinflammatory cytokines and HMGB1; type: in vivo, C57/BL6 mice; settings: 24 h after renal IRI, vs IRI-vehicle mice
# Description: Inflammatory cytokine mRNA and protein levels were measured by real-time PCR and ELISA. Kidney tissue and serum were harvested after reperfusion for 24 h. Total RNA was extracted from frozen kidney tissue using TRIzol reagent (ThermoFisher Scientific) according to the manufacturer's protocol. RNA was converted to cDNA using oligo-dT primers. IL-17, TNF-α, and IL-1b mRNA levels were determined by real-time PCR. Serum IL-17 (R&D Systems), TNF-α (R&D Systems), and IL-10 (R&D Systems) were measured using commercial ELISA kits according to the manufacturer's instructions.
# [3] = system: contrast-induced acute kidney injury (CIAKI) mice; test: CIAKI mouse model: renal function (serum creatinine, NGAL, KIM-1); type: in vivo, C57/BL6 mice
# Description: Female mice were injected with 10 gI/kg of Visipaque (iodixanol) via the tail vein. […] For inhibition of the EP4s, mice were treated with 0.2 mg/kg/day of ONO-AE3-208 by subcutaneous injection for 14 days. Serum and kidney tissue were collected 48 h after the iodixanol injection.
# Renal function was assessed by determining the serum levels of creatinine (Arbor Assays, Ann Arbor, MI, USA), NGAL (R&D Systems), and KIM-1 (R&D Systems) at 48 h after the iodixanol injection.
# [4] = system: contrast-induced acute kidney injury (CIAKI) mice; test: CIAKI mouse model: AMP and adenosine levels in renal tissue; type: in vivo, C57/BL6 mice; settings: CIAKI mice, CM + drug, 48 h after CM
# Description: 48 h after CM administration, serum and kidney tissues were harvested. The adenosine levels in the serum and kidney tissues were measured using high-performance liquid chromatography.
# [5] = system: mice with ischemic AKI (bilateral renal IRI); test: Renal IRI (ischemic AKI) mouse model: renal function markers; type: in vivo, C57/BL6 mice
# Description: Briefly, mice were anesthetized with isoflurane using a vaporizer, and bilateral renal arteries were clamped for 30 min (2, 49). After the ischemic time, clamps were released to induce blood reperfusion. […] Serum and kidney tissue were collected 24 h after renal IRI. […] After reperfusion for 24 h, kidney tissues (˜20 mg) were homogenized in cold PBS containing indomethacin (10 μg/mL) and then centrifuged for 10 min at 12,000 rpm. Protein concentrations of supernatant were determined by BCA assay (ThermoFisher Scientific, Rockford, IL). The PGE2 level was measured using a PGE2 ELISA kit (R&D Systems, Minneapolis, MN) in triplicate. PGE2 levels were expressed as nanograms of PGE2 per milligram of protein. Renal function was assessed by determining the serum levels of blood urea nitrogen (BUN; Abcam), serum creatinine (Agilent 6410 LC-MS/MS, Agilent, Santa Clara, CA), lipocalin-2 (R&D Systems), and kidney injury molecule-1 (KIM-1; R&D Systems) after reperfusion for 24 h. Measurement of serum creatinine was by HPLC. Serum creatinine was assessed using an Agilent 6410 LC-MS/MS system coupled with an Agilent 1200 series HPLC system (Agilent). […] The mixture was centrifuged at 13,000 rpm for 10 min after vigorous vortex, and 1 μL of supernatant was then injected into the LC-MS/MS system. The chromatography separation was performed on a Hypersil GOLD C18 column (150×2.1 mm, 3 m, Thermo Scientific) using a mobile phase of 0.1% formic acid solution and acetonitrile [70:30 (vol/vol)]. The flow rate was 0.2 mL/min. Electrospray ionization was performed in the positive ion mode. The capillary voltage was set at 4,000 V. Nitrogen as the nebulizing gas was set at 15 psi, and the drying gas temperature was set at 300° C., with a flow rate of 6 L/min. The multiple-reaction monitoring mode using specific precursor/production transition was used for quantification. […] The peak areas for all analytes were integrated automatically using Agilent Mass Hunter Analysis software (version B.01.04).
# [6] = 24 h after renal IRI, vs IRI-vehicle mice, dosing before and after IRI
compound,measurement,setting,value
CCCC[S+]([O-])c1sc2nc(-c3cccs3)cc(-c3ccccc3)c2c1N (stereo not shown) [SW033291],increase of renal PGE2 vs vehicle-administered normal mice,"[1]; 1 h after administration, average",three times
same,renal PGE2 levels,"[1]; normal mice, 1 h after ip 5 mg/kg",29.71 ± 2.79 ng/mg
same,HMGB1 levels in kidney tissue,[2],reduced
same,induction of IL-10 (protein only),[2],blocked induction
same,induction of IL-17,[2],blocked induction
same,induction of TNF-α,[2],blocked induction
same,"serum creatinine, absence or presence of ONO-AE3-208","[3]; CIAKI mice (FIG. 15E), SW033291 line = CM + SW033291, ONO-AE3-208 line = CM + ONO-AE3-208 + SW033291",0.50 ± 0.10 mg/dL
same,"serum NGAL, absence or presence of ONO-AE3-208","[3]; CIAKI mice (FIG. 15F), SW033291 line = CM + SW033291, ONO-AE3-208 line = CM + ONO-AE3-208 + SW033291",140.41 ± 25.52 ng/mL
same,"serum KIM-1, absence or presence of ONO-AE3-208","[3]; CIAKI mice (FIG. 15G), SW033291 line = CM + SW033291, ONO-AE3-208 line = CM + ONO-AE3-208 + SW033291",0.09 ± 0.05 ng/mL
same,serum creatinine,"[3]; CIAKI mice, CM + drug, 48 h after CM (FIG. 11C)",1.10 ± 0.11 mg/dL
same,serum NGAL,"[3]; CIAKI mice, CM + drug, 48 h after CM (FIG. 11D)",140.41 ± 25.52 ng/mL
same,serum KIM-1,"[3]; CIAKI mice, CM + drug, 48 h after CM (FIG. 11E)",0.43 ± 0.30 ng/mL
same,AMP in renal tissue,[4],15.60 ± 1.26 ng/mL
same,adenosine in renal tissue,[4],2.65 ± 0.15 ng/mL
same,BUN (serum),[5]; [6],significantly reducing
same,KIM-1 (serum),[5]; [6],significantly reducing
same,NGAL (serum),[5]; [6],significantly reducing
same,creatinine (serum),[5]; [6],significantly reducing
same,"induction of NGAL, KIM-1, and creatinine","[5]; single pre-IRI dose (Pre), time course",notable protection
